# In patent US12030875B2, “EIF4E inhibitors and uses thereof” (PIC Therapeutics, Inc., priority 2018, dated 2024):
# pIC50: −log10 of the molar value.
# Target: T1, Human eIF4E (Homo sapiens, UniProt P06730)
# T1 construct: Human eIF4E (aa 28-217) with a C-terminal His-tag; made in house
# Test: Human eIF4E/4G2 binding assay (TR-FRET)
# Settings: eIF4E (aa 28-217) with biotin labeled 4G2 peptide
# Method: Human eIF4E (aa 28-217) with a C-terminal His-tag was expressed in E. coli in inclusion bodies. The protein was solubilized with 8 M urea and purified under denaturing conditions using nickel-charged HisTrap HP columns (GE Healthcare). The purified protein was then refolded by diluting in 20 mM Hepes pH 7.0, 0.5 M NaCl, 1 mM DTT, 1 mM EDTA, 0.5 M arginine plus 6 M urea, and then dialyzing overnight into the same buffer without the urea. The protein was further dialyzed into 20 mM Hepes, pH 6.5, 50 mM NaCl, 1 mM EDTA, 1 mM DTT, and concentrated using Hitrap SP sepharose FF columns (GE Healthcare). The concentrated protein was dialyzed into 20 mM Hepes, pH 7.0, 0.5M NaCl, 5 mM DTT and 10% glycerol, and stored at −80° C. until use.
# Test compounds (3.43 mM stock in DMSO) were diluted 2-fold in series in DMSO (10 concentration points). Compound solutions (1.2 μl/well) were added into black 384-well polypropylene microplates (Matrix, Thermal Scientific). Twenty-two microliters per well of Assay Buffer (50 mM NaPi, pH 6.5, 50 mM KCl, 1 mM DTT and 0.5 mg/ml gamma globulin) and eight microliters per well of 82.5 nM purified eIF4E in Assay Buffer were added. The samples were incubated at room temperature (20-23° C.) for 15 min. Biotin labeled 4G2 peptide (Ac-Lys-Gln-Tyr-Asp-Arg-Glu-Phe-Leu-Leu-Asp-Phe-Gln-Phe-Met-Pro-Lys(Aha-Bio)-NH2, 1.75 μM stock in DMSO) was diluted to 0.14 μM in Assay Buffer (without DTT) and 5 μl/well was added. The samples were incubated at room temperature for 15 min. Five microliters per well of 6.4 nM Eu-streptavidin (Eu-SA, Perkin Elmer) and 80 nM Allophycocyanin (APC)-anti His antibody (Columbia Biosciences) in Assay Buffer (without DTT) were then added and the samples were incubated at room temperature for 20 min.
# Assay signals were monitored by reading excitation at 340 nm and emission fluorescence at 615 nm and 665 nm on an Envision reader (Perkin Elmer). Normalized TR-FRET (time-resolved fluorescence resonance energy transfer) assay signal (Rn) was calculated by the formula: Rn═[(A−Ba−C×D)/(D−Bd)]×(Dc−Bd) • Where A is the fluorescence intensity of the sample at 665 nm, • D is the fluorescence intensity of the sample at 615 nm, • Ba and Bd are plate backgrounds at 665 nm and 615 nm, respectively, • Dc is the fluorescence intensity of 0.78 nM Eu-SA in the assay buffer at 615 nm • The cross-talk factor (C) is determined by the following formula: C=(Ac−Ba)/(Dc−Bd) • Where Ac is the fluorescence intensity of 0.78 nM Eu-SA in the assay buffer at 665 nm.
# IC50 values were calculated using xLFit program (IDBS).
# T1 sequence (P06730 28-217): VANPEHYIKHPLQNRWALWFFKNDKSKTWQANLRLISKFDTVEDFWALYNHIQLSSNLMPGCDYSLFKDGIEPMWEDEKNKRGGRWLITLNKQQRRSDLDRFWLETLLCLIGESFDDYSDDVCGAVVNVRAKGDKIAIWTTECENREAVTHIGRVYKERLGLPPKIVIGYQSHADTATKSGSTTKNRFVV
row,pIC50,SMILES
1,< 4.60,O=C(O)C1CN(c2nc(-c3ccc(-c4ccc(F)cc4)cc3)c(-c3cccnc3)s2)C1 [Compound I-79]
2,4.60 to 5.30,CCCC(CNc1nc(-c2ccc(-c3ccc(F)cc3)cc2)c(-c2cccc3[nH]ccc23)s1)C(=O)O (centres unmarked) [Compound I-92]
3,> 5.30,O=C(O)C[C@H]1CCCN1c1nc(-c2ccc(-c3ccc(F)cc3)cc2)c(-c2ccccc2)s1 [Compound I-225]
4,> 5.30,CC1(C(=O)O)CN(c2nc(-c3ccc(-c4ccc(F)cc4)cc3)c(-c3ccccc3)s2)C1 [Compound I-83]
5,< 4.60,CC(CNc1nc(-c2ccc(Oc3ccccc3)cc2)c(-c2cncnc2)s1)C(=O)O (centres unmarked) [Compound I-178]
6,> 5.30,CC(C)(CNc1nc(-c2ccc(Oc3ccccc3)cc2)c(-c2ccccc2)s1)C(=O)O [Compound I-154]
7,< 4.60,CC(C)C(CC(=O)O)Nc1nc(-c2ccc(-c3cnco3)cc2)c(-c2cccc3[nH]ccc23)s1 (centres unmarked) [Compound I-4]
8,< 4.60,O=C(O)C1CCCN(c2nc(-c3ccc(-c4cnco4)cc3)c(-c3ccccc3)s2)C1 (centres unmarked) [Compound I-31]
9,> 5.30,O=C(O)C[C@@H]1CCCN1c1nc(-c2ccc(-c3ccc(F)cc3)cc2)c(-c2ccccc2)s1 [Compound I-226]
10,> 5.30,CC(C)C(CC(=O)O)Nc1nc(-c2ccc(-c3ccc(F)cc3)cc2)c(-c2ccccc2)s1 (centres unmarked) [Compound I-66]
11,< 4.60,O=C(O)C1CN(c2nc(-c3ccc(-c4cnco4)cc3)c(-c3cccnc3)s2)C1 [Compound I-11]
12,< 4.60,CCCC(CNc1nc(-c2cncnc2)c(-c2ccc(-c3cnco3)cc2)s1)C(=O)O (centres unmarked) [Compound I-19]
13,4.60 to 5.30,O=C(O)C1(CNc2nc(-c3ccc(Oc4ccccc4)cc3)c(-c3cccc4[nH]ccc34)s2)CC1 [Compound I-199]
14,< 4.60,CC(C)C(CC(=O)O)Nc1nc(-c2ccccc2)c(-c2ccc(-c3cnco3)cc2)s1 (centres unmarked) [Compound I-1]
15,> 5.30,O=C(O)C1CN(c2nc(-c3ccc(-c4ccc(F)cc4)cc3)c(-c3ccccc3)s2)CCO1 (centres unmarked) [Compound I-140]
16,4.60 to 5.30,"Cc1nc(N2CCOC(C(=O)O)C2)sc1-c1ccc(-c2ccc(F)cc2)cc1 (centres unmarked) [Compound I-237, 4-(5-(4′-fluorobiphenyl-4-yl)-4-methylthiazol-2-yl) morpholine-2-carboxylic acid]"
17,4.60 to 5.30,CC(CNc1nc(-c2ccc(-c3ccc(F)cc3)cc2)c(-c2ccccc2)s1)C(=O)O (centres unmarked) [Compound I-101]
18,< 4.60,CCCC(CNc1nc(-c2ccc(Oc3ccccc3)cc2)c(-c2cccnc2)s1)C(=O)O (centres unmarked) [Compound I-170]
19,< 4.60,CC(CNc1nc(-c2ccc(Oc3ccccc3)cc2)c(-c2cccc3[nH]ccc23)s1)C(=O)O (centres unmarked) [Compound I-180]
20,4.60 to 5.30,O=C(O)C1CN(c2nc(-c3ccc(-c4ccc(F)cc4)cc3)c(C(F)(F)F)s2)CCO1 (centres unmarked) [Compound I-239]

row,pIC50,SMILES
1,> 5.30,O=C(O)C1CCN(c2nc(-c3ccc(-c4ccc(F)cc4)cc3)c(-c3ccccc3)s2)C1 (centres unmarked) [Compound I-116]
2,> 5.30,O=C(O)CC1CCCN1c1nc(-c2ccc(Oc3ccccc3)cc2)c(-c2ccccc2)s1 (centres unmarked) [Compound I-186]
3,4.60 to 5.30,O=C(O)C1CCN(c2nc(-c3ccc(Oc4ccccc4)cc3)c(-c3cccc4[nH]ccc34)s2)C1 (centres unmarked) [Compound I-194]
4,4.60 to 5.30,CC(C)(CNc1nc(-c2ccc(-c3ccc(F)cc3)cc2)c(-c2cccc3[nH]ccc23)s1)C(=O)O [Compound I-75]
5,< 4.60,O=C(O)C1CCN(c2nc(-c3ccc(-c4cnco4)cc3)c(-c3cccnc3)s2)C1 (centres unmarked) [Compound I-42]
6,4.60 to 5.30,Cc1nc(N2CCCC(C(=O)O)C2)sc1-c1ccc(-c2ccc(F)cc2)cc1 (centres unmarked) [Compound I-238]
7,< 4.60,O=C(O)C1(CNc2nc(-c3ccc(-c4cnco4)cc3)c(-c3cccc4[nH]ccc34)s2)CC1 [Compound I-47]
8,4.60 to 5.30,O=C(O)C1CCCN(c2nc(-c3ccc(-c4ccc(F)cc4)cc3)c(-c3cccnc3)s2)C1 (centres unmarked) [Compound I-108]
9,< 4.60,CC(CC(=O)O)Nc1nc(-c2ccc(Oc3ccccc3)cc2)c(-c2cncnc2)s1 (centres unmarked) [Compound I-173]
10,< 4.60,CC(C)(CNc1nc(-c2ccc(-c3cnco3)cc2)c(-c2cccnc2)s1)C(=O)O [Compound I-7]
11,4.60 to 5.30,CC1(C(=O)O)CN(c2nc(-c3ccc(Oc4ccccc4)cc3)c(-c3cccc4[nH]ccc34)s2)C1 [Compound I-166]
12,> 5.30,O=C(O)C1CCCN(c2nc(-c3ccc(-c4ccc(F)cc4)cc3)c(C(F)(F)F)s2)C1 (centres unmarked) [Compound I-233]
13,> 5.30,O=C(O)C1CN(c2nc(-c3ccc(Oc4ccccc4)cc3)c(-c3ccccc3)s2)C1 [Compound I-158]
14,4.60 to 5.30,CC(C)(CNc1nc(-c2ccc(Oc3ccccc3)cc2)c(-c2cccc3[nH]ccc23)s1)C(=O)O [Compound I-157]
15,> 5.30,"O=C(O)CCc1nc(-c2ccc(-c3ccc(F)cc3)cc2)c(-c2ccccc2)s1 [Compound I-234, 3-(4-(4′-fluorobiphenyl-4-yl)-5-phenylthiazol-2-yl)propanoic acid]"
16,< 4.60,O=C(O)C1CCN(c2nc(-c3ccc(-c4cnco4)cc3)c(-c3cncnc3)s2)CC1 [Compound I-53]
17,< 4.60,O=C(O)C1CN(c2nc(-c3ccc(-c4cnco4)cc3)c(-c3cccc4[nH]ccc34)s2)C1 [Compound I-12]
18,4.60 to 5.30,O=C(O)C1CN(c2nc(-c3ccc(-c4ccc(F)cc4)cc3)c(-c3ccccc3)s2)C1 [Compound I-77]
19,> 5.30,O=C(O)[C@@H]1CCCN(c2nc(-c3ccc(-c4ccc(F)cc4)cc3)c(-c3ccccc3)s2)C1 [Compound I-223]
20,< 4.60,O=C(O)C1CN(c2nc(-c3ccc(-c4ccc(F)cc4)cc3)c(-c3cncnc3)s2)C1 [Compound I-78]

row,pIC50,SMILES
1,< 4.60,O=C(O)C1CCCN(c2nc(-c3ccc(-c4ccc(F)cc4)cc3)c(-c3cncnc3)s2)C1 (centres unmarked) [Compound I-107]
2,4.60 to 5.30,O=C(O)C1(CNc2nc(-c3ccc(-c4ccc(F)cc4)cc3)c(Br)s2)CC1 [Compound I-121]
3,< 4.60,CC(C)C(CC(=O)O)Nc1nc(-c2ccc(-c3ccc(F)cc3)cc2)c(-c2cncnc2)s1 (centres unmarked) [Compound I-67]
4,4.60 to 5.30,CC(C)C(CC(=O)O)Nc1nc(-c2ccc(-c3ccc(F)cc3)cc2)cs1 (centres unmarked) [Compound I-64]
5,< 4.60,O=C(O)C1CCCN(c2nc(-c3ccc(-c4cnco4)cc3)c(-c3cncnc3)s2)C1 (centres unmarked) [Compound I-32]
6,4.60 to 5.30,CC1(C(=O)O)CCCN(c2nc(-c3ccc(Oc4ccccc4)cc3)c(-c3cccnc3)s2)C1 (centres unmarked) [Compound I-219]
7,4.60 to 5.30,CC1(C(=O)O)CN(c2nc(-c3ccc(Oc4ccccc4)cc3)c(-c3ccccc3)s2)C1 [Compound I-163]
8,< 4.60,CC(CC(=O)O)Nc1nc(-c2ccc(Oc3ccccc3)cc2)c(-c2cccnc2)s1 (centres unmarked) [Compound I-174]
9,> 5.30,O=C(O)C1CC(CNc2nc(-c3ccc(-c4ccc(F)cc4)cc3)c(-c3ccccc3)s2)C1 (centres unmarked) [Compound I-128]
10,< 4.60,O=C(O)CC1CCCN1c1nc(-c2ccc(-c3cnco3)cc2)cs1 (centres unmarked) [Compound I-35]
11,< 4.60,O=C(O)C1CCN(c2nc(-c3ccc(-c4cnco4)cc3)c(-c3cccc4[nH]ccc34)s2)CC1 [Compound I-55]
12,< 4.60,O=C(O)C1CCCN(c2nc(-c3ccc(-c4cnco4)cc3)c(-c3cccnc3)s2)C1 (centres unmarked) [Compound I-33]
13,> 5.30,CC(C)[C@H](CC(=O)O)Nc1nc(-c2ccc(-c3ccc(F)cc3)cc2)c(Br)s1 [Compound I-222]
14,< 4.60,O=C(O)C1CCN(c2nc(-c3ccc(-c4ccc(F)cc4)cc3)c(-c3cccnc3)s2)C1 (centres unmarked) [Compound I-118]
15,< 4.60,CC(C)(CC(=O)O)Nc1nc(-c2ccc(Oc3ccccc3)cc2)c(-c2cncnc2)s1 [Compound I-150]
16,< 4.60,CC1(C(=O)O)CCCN(c2nc(-c3ccc(-c4cnco4)cc3)c(-c3cccc4[nH]ccc34)s2)C1 (centres unmarked) [Compound I-63]
17,< 4.60,O=C(O)C1CN(c2nc(-c3ccc(-c4cnco4)cc3)c(-c3ccccc3)s2)C1 [Compound I-9]
18,< 4.60,O=C(O)C1CCCN(c2nc(-c3ccc(Oc4ccccc4)cc3)c(-c3cccnc3)s2)C1 (centres unmarked) [Compound I-184]
19,< 4.60,O=C(O)C1CC(CNc2nc(-c3ccc(Oc4ccccc4)cc3)c(-c3cccnc3)s2)C1 (centres unmarked) [Compound I-203]
